Results as given in the NIST ThermoML archive (doi:10.1021/je800527p).

Experiment: mn = molality of the nth substance listed, in mol/kg
Conditions: 101 kPa, Liquid

N[C@@H](CC(=O)NCC(=O)O)C(=O)NCC(=O)O [L-aspartoylbisglycine] + O
Conditions | mass density [kg/m3]
288.15 K, m1 = 0.02634 | 1001.74
288.15 K, m1 = 0.03248 | 1002.34
288.15 K, m1 = 0.03979 | 1003.07
288.15 K, m1 = 0.04516 | 1003.6
288.15 K, m1 = 0.05155 | 1004.23
288.15 K, m1 = 0.05974 | 1005.03
288.15 K, m1 = 0.06457 | 1005.5
288.15 K, m1 = 0.06951 | 1005.98
298.15 K, m1 = 0.02287 | 999.295
298.15 K, m1 = 0.02484 | 999.489
298.15 K, m1 = 0.02795 | 999.79
298.15 K, m1 = 0.03159 | 1000.15
298.15 K, m1 = 0.0337 | 1000.35
298.15 K, m1 = 0.03757 | 1000.73
298.15 K, m1 = 0.04282 | 1001.24
298.15 K, m1 = 0.0486 | 1001.8
298.15 K, m1 = 0.05367 | 1002.29
298.15 K, m1 = 0.05892 | 1002.8
303.15 K, m1 = 0.02228 | 997.821
303.15 K, m1 = 0.02508 | 998.095
303.15 K, m1 = 0.02783 | 998.36
303.15 K, m1 = 0.0319 | 998.757
303.15 K, m1 = 0.03772 | 999.316
303.15 K, m1 = 0.0429 | 999.814
303.15 K, m1 = 0.04971 | 1000.47
303.15 K, m1 = 0.0554 | 1001.02
303.15 K, m1 = 0.06187 | 1001.64
313.15 K, m1 = 0.02228 | 994.368
313.15 K, m1 = 0.02508 | 994.635
313.15 K, m1 = 0.02783 | 994.898
313.15 K, m1 = 0.0319 | 995.29
313.15 K, m1 = 0.03772 | 995.842
313.15 K, m1 = 0.0429 | 996.336
313.15 K, m1 = 0.04971 | 996.987
313.15 K, m1 = 0.0554 | 997.526
313.15 K, m1 = 0.06187 | 998.14

NCC(=O)N[C@@H](CS)C(=O)NCC(=O)O [glycyl-L-cysteinylglycine] + O
Conditions | mass density [kg/m3]
288.15 K, m1 = 0.01633 | 1000.63
288.15 K, m1 = 0.02087 | 1001.05
288.15 K, m1 = 0.02582 | 1001.51
288.15 K, m1 = 0.02984 | 1001.88
288.15 K, m1 = 0.03474 | 1002.34
288.15 K, m1 = 0.0395 | 1002.78
288.15 K, m1 = 0.04097 | 1002.91
288.15 K, m1 = 0.04442 | 1003.23
288.15 K, m1 = 0.04953 | 1003.71
303.15 K, m1 = 0.02103 | 997.568
303.15 K, m1 = 0.02497 | 997.92
303.15 K, m1 = 0.02788 | 998.184
303.15 K, m1 = 0.03046 | 998.417
303.15 K, m1 = 0.03394 | 998.731
303.15 K, m1 = 0.0374 | 999.043
303.15 K, m1 = 0.04008 | 999.279
303.15 K, m1 = 0.04358 | 999.593
303.15 K, m1 = 0.05003 | 1000.17
303.15 K, m1 = 0.05296 | 1000.43
313.15 K, m1 = 0.02094 | 994.099
313.15 K, m1 = 0.03109 | 995.001
313.15 K, m1 = 0.03597 | 995.437
313.15 K, m1 = 0.03941 | 995.739
313.15 K, m1 = 0.04508 | 996.242
313.15 K, m1 = 0.05002 | 996.672
313.15 K, m1 = 0.05218 | 996.867
313.15 K, m1 = 0.05751 | 997.331

NCC(=O)N[C@@H](Cc1cnc[nH]1)C(=O)NCC(=O)O [glycyl-L-histidylglycine] + O
Conditions | mass density [kg/m3]
288.15 K, m1 = 0.004019 | 999.501
288.15 K, m1 = 0.00501 | 999.6
288.15 K, m1 = 0.006072 | 999.708
288.15 K, m1 = 0.007051 | 999.802
288.15 K, m1 = 0.008127 | 999.911
288.15 K, m1 = 0.00901 | 1000
288.15 K, m1 = 0.01012 | 1000.11
288.15 K, m1 = 0.01088 | 1000.19
288.15 K, m1 = 0.01205 | 1000.31
298.15 K, m1 = 0.004009 | 997.442
298.15 K, m1 = 0.007226 | 997.762
298.15 K, m1 = 0.008041 | 997.838
298.15 K, m1 = 0.00901 | 997.939
298.15 K, m1 = 0.01009 | 998.038
298.15 K, m1 = 0.01109 | 998.142
298.15 K, m1 = 0.01227 | 998.254
303.15 K, m1 = 0.00404 | 996.046
303.15 K, m1 = 0.00498 | 996.138
303.15 K, m1 = 0.006103 | 996.247
303.15 K, m1 = 0.00711 | 996.346
303.15 K, m1 = 0.007975 | 996.427
303.15 K, m1 = 0.01106 | 996.73
303.15 K, m1 = 0.01225 | 996.842
313.15 K, m1 = 0.005108 | 992.711
313.15 K, m1 = 0.006051 | 992.804
313.15 K, m1 = 0.006936 | 992.89
313.15 K, m1 = 0.0082 | 993.012
313.15 K, m1 = 0.01022 | 993.207
313.15 K, m1 = 0.01138 | 993.309
313.15 K, m1 = 0.01232 | 993.4

NCC(=O)N[C@@H](CO)C(=O)NCC(=O)O [glycyl-L-serylglycine] + O
Conditions | mass density [kg/m3]
288.15 K, m1 = 0.03014 | 1001.82
288.15 K, m1 = 0.03542 | 1002.28
288.15 K, m1 = 0.04107 | 1002.79
288.15 K, m1 = 0.04543 | 1003.18
288.15 K, m1 = 0.05019 | 1003.61
288.15 K, m1 = 0.05524 | 1004.05
288.15 K, m1 = 0.06026 | 1004.51
288.15 K, m1 = 0.06526 | 1004.95
298.15 K, m1 = 0.025 | 999.264
298.15 K, m1 = 0.0306 | 999.768
298.15 K, m1 = 0.03505 | 1000.16
298.15 K, m1 = 0.04024 | 1000.61
298.15 K, m1 = 0.04521 | 1001.05
298.15 K, m1 = 0.05166 | 1001.62
298.15 K, m1 = 0.05493 | 1001.9
298.15 K, m1 = 0.0598 | 1002.34
298.15 K, m1 = 0.06564 | 1002.84
303.15 K, m1 = 0.02533 | 997.881
303.15 K, m1 = 0.02992 | 998.289
303.15 K, m1 = 0.03496 | 998.733
303.15 K, m1 = 0.0453 | 999.64
303.15 K, m1 = 0.05003 | 1000.05
303.15 K, m1 = 0.0555 | 1000.53
303.15 K, m1 = 0.06095 | 1001
303.15 K, m1 = 0.06473 | 1001.34
313.15 K, m1 = 0.02969 | 994.793
313.15 K, m1 = 0.03329 | 995.098
313.15 K, m1 = 0.03976 | 995.655
313.15 K, m1 = 0.04401 | 996.025
313.15 K, m1 = 0.04969 | 996.506
313.15 K, m1 = 0.05419 | 996.891
313.15 K, m1 = 0.05935 | 997.32
313.15 K, m1 = 0.06498 | 997.808

NCC(=O)N[C@@H](Cc1ccc(O)cc1)C(=O)NCC(=O)O [glycyl-L-tyrosylglycine] + O
Conditions | mass density [kg/m3]
288.15 K, m1 = 0.01708 | 1000.85
288.15 K, m1 = 0.01938 | 1001.08
288.15 K, m1 = 0.02117 | 1001.26
288.15 K, m1 = 0.023 | 1001.45
288.15 K, m1 = 0.02384 | 1001.53
288.15 K, m1 = 0.02504 | 1001.65
288.15 K, m1 = 0.02575 | 1001.72
288.15 K, m1 = 0.02705 | 1001.85
288.15 K, m1 = 0.0279 | 1001.95
288.15 K, m1 = 0.02909 | 1002.06
303.15 K, m1 = 0.01685 | 997.325
303.15 K, m1 = 0.01781 | 997.42
303.15 K, m1 = 0.019 | 997.535
303.15 K, m1 = 0.02087 | 997.719
303.15 K, m1 = 0.02301 | 997.932
303.15 K, m1 = 0.02396 | 998.023
303.15 K, m1 = 0.02501 | 998.127
303.15 K, m1 = 0.02604 | 998.224
303.15 K, m1 = 0.02701 | 998.323
303.15 K, m1 = 0.02792 | 998.415
303.15 K, m1 = 0.02882 | 998.496
313.15 K, m1 = 0.017 | 993.889
313.15 K, m1 = 0.01785 | 993.972
313.15 K, m1 = 0.01889 | 994.065
313.15 K, m1 = 0.02086 | 994.259
313.15 K, m1 = 0.0216 | 994.332
313.15 K, m1 = 0.02288 | 994.456
313.15 K, m1 = 0.02376 | 994.546
313.15 K, m1 = 0.02492 | 994.655
313.15 K, m1 = 0.02586 | 994.742
313.15 K, m1 = 0.02688 | 994.842
313.15 K, m1 = 0.02763 | 994.913
313.15 K, m1 = 0.02902 | 995.047
